# Laboratory results from patent publication US20200206108A1, “Oral Care Compositions and Methods of Use” (Colgate-Palmolive Company, priority 2018, published 2020).
# Experiment: Zeta potential of zinc oxide in the presence of amino acids
# Type: physicochemical
# Details: aqueous zinc oxide suspension 12 mM, alone (pH 8) or with the named amino acid (1.7 mmol) added
# Procedure: The effect on zinc oxide particle charge upon exposure to amino acids was screened using zeta potential. Specific amino acids were selected based on side chain functionality: L-serine (polar, neutral), L-arginine (polar, cationic), and L-glutamic acid (polar, anionic). For zeta potential measurements, select amino acids (1.7 mmol) were added to aqueous suspensions of zinc oxide (12 mM). This concentration of zinc oxide was studied so as to minimize aggregation during zeta potential measurements. Each amino acid-zinc oxide solution was vortexed, sonicated, and then loaded into a Zetasizer DTS 1061 capillary cuvette. The cuvette was placed in the Zetasizer instrument and 12 zeta runs were performed. An average zeta potential value was calculated from the results.
row,Structure (SMILES),zeta potential (charge of zinc oxide)
1,N=C(N)NCCC[C@H](N)C(=O)O [L-arginine],+36 mV
2,N[C@@H](CCC(=O)O)C(=O)O [L-glutamic acid],−28 mV
3,N[C@@H](CO)C(=O)O [L-serine],did not alter the charge
4,"[O]=[Zn] [Zinc oxide, zinc oxide]",+16 mV
